Measurements published in patent EP0059645A1, “Method and kit for identification of beta-lactamases” (NATIONAL RESEARCH DEVELOPMENT CORPORATION, priority 1981, dated 1982).
Marks after values point to notes of the source that are not given here.

Legend:
OXA-2 [1] = target: T1, OXA-2 (Escherichia coli, UniProt P0A1V9); test: Competitive assay with nitrocefin (RSAI); format: biochemical, E. coli R46; design: the beta-lactamase has to be extracted from the cells for the purpose of the present invention; made in house; host or cells: E. coli carrying R46 according to the earlier reading (crude cell extract)
OXA-3 [2] = target: T2, OXA-3 (Pseudomonas aeruginosa, UniProt Q51429); test: Competitive assay with nitrocefin (RSAI); format: biochemical, E. coli R57B; design: Normally, therefore, the beta-lactamase has to be extracted from the cells for the purpose of the present invention; endogenous in cells
PSE-2 [3] = target: T3, PSE-2 (Pseudomonas aeruginosa, UniProt P14489); test: 6-well visual test with nitrocefin; settings: 3 minutes, room temperature
SHV-1 [4] = target: T4, SHV-1 (Escherichia coli, UniProt P0AD63); test: 6-well visual test with nitrocefin; settings: 3 minutes, room temperature
OXA-1 [5] = target: T5, OXA-1 (Escherichia coli, UniProt P13661); test: 6-well visual test with nitrocefin; settings: 3 minutes, room temperature
PSE-3 [6] = test: Competitive assay with nitrocefin (RSAI); format: biochemical, Ps.aerug. 1920E
E. cloacae = E. cloacae (Enterobacter cloacae, UniProt P05364); test: 6-well visual test with nitrocefin; settings: 3 minutes, room temperature
SHV-1 [7] = target: T4, SHV-1; test: Competitive assay with nitrocefin (RSAI); format: biochemical, E. coli 2008E; design: the beta-lactamase has to be extracted from the cells for the purpose of the present invention; made in house; host or cells: E. coli 2008E (crude cell extract)
OXA-3 [8] = target: T2, OXA-3; test: 6-well visual test with nitrocefin; settings: 3 minutes, room temperature
OXA-2 [9] = target: T1, OXA-2; test: 6-well visual test with nitrocefin; settings: 3 minutes, room temperature
HMS-1 [10] = test: 6-well visual test with nitrocefin; settings: 3 minutes, room temperature
PSE-4 [11] = target: T6, PSE-4 (Pseudomonas aeruginosa, UniProt P16897); test: 6-well visual test with nitrocefin; settings: 3 minutes, room temperature
PSE-1 [12] = target: T7, PSE-1 (Pseudomonas aeruginosa, UniProt Q03170); test: Competitive assay with nitrocefin (RSAI); format: biochemical, Ps.aerug. 1937E; design: Normally, therefore, the beta-lactamase has to be extracted from the cells for the purpose of the present invention; endogenous in cells
[13] = target: Chromosomal, hyper-induced beta-lactamase enzyme (Escherichia coli, UniProt P00811); test: Competitive assay with nitrocefin (RSAI); format: biochemical, E. coli SNU35; design: Normally, therefore, the beta-lactamase has to be extracted from the cells for the purpose of the present invention; endogenous in cells; host or cells: E. coli SNU 35 (artificially produced strain)
K10317 = test: Competitive assay with nitrocefin (RSAI); format: biochemical, K.aerog. 10317
Excerpt: (§1) It is convenient to express the results in terms of a Relative Substrate Affinity Index (RSAI) value.
(§2) RSAI = Concentration of competing substrate which gives 50% inhibition of ring-opening hydrolysis of the chromogenic substrate
(§3) Concentration of chromogenic substrate in the assay A high RSAI value therefore indicates a low affinity of the beta-lactamase for that competing substrate, and therefore predicts resistance of a beta-lactam competing substrate to hydrolysis by the beta-lactamase. Low RSAI values, in contrast, predict sensitivity to hydrolysis by a beta-lactamase.
(§4) Beta-lactam antibiotics which bind to the TEM-2 enzyme compete with nitrocefin in the assay. […] . This concentration of ampicillin is a direct estimate of the relative affinity of the TEM-2 enzyme for ampicillin. […] . The RSAI value was therefore 1.3.

Ps +AMP (Chromosomal) = Ps +AMP (Chromosomal) (Pseudomonas aeruginosa, UniProt P24735); test: 6-well visual test with nitrocefin; settings: 3 minutes, room temperature
TEM-2 [14] = target: T8, TEM-2 (Escherichia coli, UniProt P62593, Q37K); test: 6-well visual test with nitrocefin; settings: 3 minutes, room temperature
TEM-2 [15] = target: T8, TEM-2; test: Competitive assay with nitrocefin (RSAI); format: biochemical, E. coli 1725E
Excerpt: as §1, §2, §3, §4

PSE-4 [16] = target: T6, PSE-4; test: Competitive assay with nitrocefin (RSAI); format: biochemical, Ps.aerug. 1559E; design: Normally, therefore, the beta-lactamase has to be extracted from the cells for the purpose of the present invention; endogenous in cells
PSE-3 [17] = test: 6-well visual test with nitrocefin; settings: 3 minutes, room temperature
HMS-1 [18] = test: Competitive assay with nitrocefin (RSAI); format: biochemical, E. coli 1946
PSE-1 [19] = target: T7, PSE-1; test: 6-well visual test with nitrocefin; settings: 3 minutes, room temperature
K17 = test: Competitive assay with nitrocefin (RSAI); format: biochemical, Klebsiella 17
Excerpt: as §1, §2, §3, §4

OXA-1 [20] = target: T5, OXA-1; test: Competitive assay with nitrocefin (RSAI); format: biochemical, E. coli 1527E; design: the beta-lactamase has to be extracted from the cells for the purpose of the present invention; made in house; host or cells: E. coli 1527E according to the earlier reading (crude cell extract)
[21] = target: T9, Chromosomal, constitutive beta-lactamase enzyme (Enterobacter cloacae, UniProt P05364); test: Competitive assay with nitrocefin (RSAI); format: biochemical, E. cloacae
T9 construct: Normally, therefore, the beta-lactamase has to be extracted from the cells for the purpose of the present invention; endogenous in cells

[22] = target: T10, Chromosomal, induced beta-lactamase enzyme (Pseudomonas aeruginosa, UniProt P24735); test: Competitive assay with nitrocefin (RSAI); format: biochemical, Ps.aerug. 1937E + ampicillin
T10 construct: Normally, therefore, the beta-lactamase has to be extracted from the cells for the purpose of the present invention; endogenous in cells; host or cells: Pseudomonas aeruginosa 1937E grown with ampicillin

PSE-2 [23] = target: T3, PSE-2; test: Competitive assay with nitrocefin (RSAI); format: biochemical, Ps.aerug. 1973E; design: Normally, therefore, the beta-lactamase has to be extracted from the cells for the purpose of the present invention; endogenous in cells
K1073 = test: Competitive assay with nitrocefin (RSAI); format: biochemical, Klebsiella 1073
Excerpt: as §1, §2, §3, §4

TEM-1 [24] = target: T11, TEM-1 (Escherichia coli, UniProt P62593); test: Competitive assay with nitrocefin (RSAI); format: biochemical, E. coli 2136E; design: the beta-lactamase has to be extracted from the cells for the purpose of the present invention; made in house; host or cells: E. coli 2136E (plasmid-bearing strain; crude cell extract)
TEM-1 [25] = target: T11, TEM-1; test: 6-well visual test with nitrocefin; settings: 3 minutes, room temperature
TEM-2 beta-lactamase = TEM-2 beta-lactamase (Escherichia coli, UniProt P62593, Q37K); format: biochemical, E. coli C9 RP4
[26] = test system: O=C(Cc1cccs1)N[C@@H]1C(=O)N2C(C(=O)O)=C(C=Cc3ccc([N+](=O)[O-])cc3[N+](=O)[O-])CS[C@H]12; test: purified protein, by the assay type; settings: pH 7.0; 37.0 °C
[27] = well D: Mecillinam 20:1 to nitrocefin
[28] = well B: Cefotaxime 100:1 to nitrocefin
[29] = well C: Cefamandole 1:1 to nitrocefin

Molecule: CC1(C)S[C@@H]2[C@H](/N=C/N3CCCCCC3)C(=O)N2[C@H]1C(=O)O [Mecil-linam, Mecillinam]
- RSAI (OXA-2 [1]): 100
- RSAI (OXA-3 [2]): 30
- Score in 6-well visual test (PSE-2 [3]; [27]): ++
- Score in 6-well visual test (SHV-1 [4]; [27]): ++
- Score in 6-well visual test (OXA-1 [5]; [27]): ++
- RSAI (PSE-3 [6]): 15
- Score in 6-well visual test (E. cloacae; [27]): -
- RSAI (SHV-1 [7]): 80
- Score in 6-well visual test (OXA-3 [8]; [27]): +
- Score in 6-well visual test (OXA-2 [9]; [27]): +
- Score in 6-well visual test (HMS-1 [10]; [27]): -
- Score in 6-well visual test (PSE-4 [11]; [27]): ++
- RSAI (PSE-1 [12]): 66
- RSAI [13]: 0.7*
- RSAI (K10317): 80
- Score in 6-well visual test (Ps +AMP (Chromosomal); [27]): +
- Score in 6-well visual test (TEM-2 [14]; [27]): ++
- RSAI (TEM-2 [15]): 80
- RSAI (PSE-4 [16]): 140
- Score in 6-well visual test (PSE-3 [17]; [27]): +
- RSAI (HMS-1 [18]): 2
- Score in 6-well visual test (PSE-1 [19]; [27]): ++
- RSAI (K17): 260
- RSAI (OXA-1 [20]): 400
- RSAI [21]: 1.3*
- RSAI [22]: 68
- RSAI (PSE-2 [23]): 450
- RSAI (K1073): 102
- RSAI (TEM-1 [24]): 90
- Score in 6-well visual test (TEM-1 [25]; [27]): ++

Molecule: CO/N=C(\C(=O)N[C@@H]1C(=O)N2C(C(=O)O)=C(COC(C)=O)CS[C@H]12)c1csc(N)n1 [Cefotaxime]
- RSAI (OXA-2 [1]): 12
- RSAI (OXA-3 [2]): 15
- Score in 6-well visual test (PSE-2 [3]; [28]): -
- Score in 6-well visual test (SHV-1 [4]; [28]): ++
- Score in 6-well visual test (OXA-1 [5]; [28]): -
- RSAI (PSE-3 [6]): 100
- Score in 6-well visual test (E. cloacae; [28]): -
- RSAI (SHV-1 [7]): 400
- Score in 6-well visual test (OXA-3 [8]; [28]): -
- Score in 6-well visual test (OXA-2 [9]; [28]): -
- Score in 6-well visual test (HMS-1 [10]; [28]): -
- Score in 6-well visual test (PSE-4 [11]; [28]): +
- RSAI (PSE-1 [12]): 70
- RSAI [13]: 0.004
- RSAI (K10317): 320
- Score in 6-well visual test (Ps +AMP (Chromosomal); [28]): -
- Score in 6-well visual test (TEM-2 [14]; [28]): ++
- RSAI (TEM-2 [15]): 600
- RSAI (PSE-4 [16]): 50
- Score in 6-well visual test (PSE-3 [17]; [28]): +
- RSAI (HMS-1 [18]): 11
- Score in 6-well visual test (PSE-1 [19]; [28]): +
- RSAI (K17): 60
- RSAI (OXA-1 [20]): 9
- RSAI [21]: 0.0006
- RSAI [22]: 0.004
- RSAI (PSE-2 [23]): 9.6
- RSAI (K1073): 330
- RSAI (TEM-1 [24]): 400
- Score in 6-well visual test (TEM-1 [25]; [28]): ++

Molecule: Cc1onc(-c2ccccc2Cl)c1C(=O)N[C@@H]1C(=O)N2[C@@H]1SC(C)(C)[C@@H]2C(=O)O [Cloxacillin]
- RSAI (OXA-2 [1]): 30
- RSAI (OXA-3 [2]): 0.01
- RSAI (PSE-3 [6]): 0.24
- RSAI (SHV-1 [7]): 2
- RSAI (PSE-1 [12]): 2
- RSAI [13]: 0.0000016*
- RSAI (K10317): 3.7*
- RSAI (TEM-2 [15]): 0.5
- nature of the binding to the enzyme (TEM-2 beta-lactamase; from kinetics of nitrocefin cleavage): does not undergo irreversible binding
- RSAI (PSE-4 [16]): 3.3
- RSAI (HMS-1 [18]): 0.02
- RSAI (K17): 14
- RSAI (OXA-1 [20]): 0.6
- RSAI [21]: 0.00004
- RSAI [22]: 0.00017
- RSAI (PSE-2 [23]): 4.5
- RSAI (K1073): 4*
- RSAI (TEM-1 [24]): 0.75

Molecule: (Pseudomonas aeruginosa)
- Km [26]: 28 µg/mL

Molecule: CC1(C)S[C@@H]2[C@H](NC(=O)[C@H](N)c3ccccc3)C(=O)N2[C@H]1C(=O)O [Ampi-cillin, ampicillin]
- RSAI (OXA-2 [1]): 10
- RSAI (OXA-3 [2]): 0.2
- RSAI (PSE-3 [6]): 1.7
- RSAI (SHV-1 [7]): 3
- RSAI (PSE-1 [12]): 0.4
- RSAI [13]: 0.03*
- RSAI (K10317): 9.4
- RSAI (TEM-2 [15]): 2.6
- RSAI (TEM-2 beta-lactamase; without pre-incubation, nitrocefin 50 micrograms/ml, after 4.5 minutes, 37°C): 1.3
- RSAI (PSE-4 [16]): 2.7
- RSAI (HMS-1 [18]): 0.5
- RSAI (K17): 2.9
- RSAI (OXA-1 [20]): 4
- RSAI [21]: 0.02
- RSAI [22]: 0.12
- RSAI (PSE-2 [23]): 0.85
- RSAI (K1073): 6.7
- RSAI (TEM-1 [24]): 4

Molecule: Cn1nnnc1SCC1=C(C(=O)O)N2C(=O)[C@@H](NC(=O)[C@H](O)c3ccccc3)[C@H]2SC1 [Cefaman-dole, Cefamandole]
- RSAI (OXA-2 [1]): 1.7
- RSAI (OXA-3 [2]): 0.75
- Score in 6-well visual test (PSE-2 [3]; [29]): -
- Score in 6-well visual test (SHV-1 [4]; [29]): ++
- Score in 6-well visual test (OXA-1 [5]; [29]): ++
- RSAI (PSE-3 [6]): 0.006
- Score in 6-well visual test (E. cloacae; [29]): -
- RSAI (SHV-1 [7]): 6.6
- Score in 6-well visual test (OXA-3 [8]; [29]): +
- Score in 6-well visual test (OXA-2 [9]; [29]): +
- Score in 6-well visual test (HMS-1 [10]; [29]): +
- Score in 6-well visual test (PSE-4 [11]; [29]): ++
- RSAI (PSE-1 [12]): 6.9
- RSAI [13]: 0.12*
- RSAI (K10317): 5
- Score in 6-well visual test (Ps +AMP (Chromosomal); [29]): +
- Score in 6-well visual test (TEM-2 [14]; [29]): ++
- RSAI (TEM-2 [15]): 11
- RSAI (PSE-4 [16]): 9
- Score in 6-well visual test (PSE-3 [17]; [29]): -
- RSAI (HMS-1 [18]): 0.5
- Score in 6-well visual test (PSE-1 [19]; [29]): ++
- RSAI (K17): 1.8
- RSAI (OXA-1 [20]): 1.5
- RSAI [21]: 0.03
- RSAI [22]: 5
- RSAI (PSE-2 [23]): 0.06
- RSAI (K1073): 3.9
- RSAI (TEM-1 [24]): 11
- Score in 6-well visual test (TEM-1 [25]; [29]): ++
